Source: patent publication US10744114B2, “Use of eupatilin as pharmaceutical composition for prevention and treatment of fibrosis using EMT inhibitory activity” (OSTEONEUROGEN INC., priority 2016, dated 2020)

What was measured:
[1] = tested on: ONGHEPA1 cells; assay: Global gene expression analysis (RNA-Seq) and target gene analysis; assay type: cell-based, mouse; conditions: TGF-β vs TGF-β+eupatilin, 24 hr
Description: For a mechanism for the therapeutic effect on fibrosis, the global gene expression of DMSO-treated ONGHEPA1 cells (a control group), ONGHEPA1 cells in which fibrosis was induced by TGF-β, and ONGHEPA1 cells treated with TGF-β and eupatilin was measured.
The cells were treated with DMSO, TGF-β or eupatilin for 24 hr, and total RNA was isolated to manufacture a library, after which about 10,000 expressed mRNA species in a total transcriptome of 30 Gb were analyzed using an Illumina High-seq sequencer.

[2] = tested on: bleomycin-induced pulmonary fibrosis; assay: Fibrosis of lung tissue induced by bleomycin (Masson's trichrome); assay type: in vivo, C57BL/6J mice; conditions: 12 days after bleomycin 40 μg/head
Excerpt: Five-week-old male C57BL/6J mice (weight: 18.2 to 20.5 g) (KOATECH, Korea) were used as experimental animals, and each test group was composed of five experimental animals, as is summarized in Table 1 below.
Pulmonary fibrosis was induced by directly injecting a bleomycin solution into the lungs via the trachea according to the intratracheal instillation (IT) method of Kremer, Laxer and Berkman et al. Specifically, C57BL/6J mice were anesthetized through inhalation with 70% N2O and 30% O2 gas and 1.5% isoflurane, and the skin of the anterior neck thereof was excised and the organs under the muscle thereof were exposed and then carefully excised using ophthalmic surgical scissors. 50 μL of a bleomycin solution in distilled water was directly injected into the lungs all at once via the excised organ using a 1 mL syringe fitted with a 19-gauge injection needle having a blunt tip. […]
Eupatilin was used by being dissolved in a DPBS buffer (containing 1% DMSO), and the amount of eupatilin that was administered was 1 mL/kg, and the dose for each individual was calculated based on the recent body weight thereof 12 days after the administration of bleomycin, eupatilin was forcibly nasally administered once a day (5 times a week) for 1 week using a micropipette. […]

[3] = Observation of toxic symptoms and death after administration; assay type: in vivo, C57BL/6J mice; conditions: 2 to 3 days after administration, nasal, bleomycin-treated mice
Description: Eupatilin was used by being dissolved in a DPBS buffer (containing 1% DMSO), and the amount of eupatilin that was administered was 1 mL/kg, and the dose for each individual was calculated based on the recent body weight thereof 12 days after the administration of bleomycin, eupatilin was forcibly nasally administered once a day (5 times a week) for 1 week using a micropipette.

COc1ccc(-c2cc(=O)c3c(O)c(OC)c(O)cc3o2)cc1OC [eupatilin, 2-(3,4-dimethoxyphenyl)-5,7-dihydroxy-6-methoxy-chromone]
Log2fc Latent transforming growth factor beta binding protein 4 (Ltbp4) [1]: −infinite
Log2fc Leprecan 1 (Lepre1) [1]: 1.75
Log2fc Lethal giant larvae homolog 1 (Ligi1) [1]: infinite
Log2fc Lysyl oxidase-like 2 (Loxl2) [1]: 1.93
Log2fc Microtubule-associated protein 4 (Map4) [1]: −infinite
Log2fc Multiple coagulation factor deficiency 2 (Mcfd2) [1]: −1.28
Log2fc Natriuretic peptide receptor 3 (Npr3) [1]: 2.82
Log2fc Nischarin (Nisch) [1]: infinite
Log2fc Olfactomedin 2 (Olfm2) [1]: 1.9
Log2fc Oxysterol binding protein-like 9 (Osbpl9) [1]: −infinite
Log2fc Palladin, cytoskeletal associated protein (Palld) [1]: infinite
Log2fc Periostin (Postn) [1]: −4.92
Log2fc Perlecan (Heparan sulfate proteoglycan2) (Hspg2) [1]: infinite
Log2fc Pleckstrin and sec7 domain containing 3 (Psd3) [1]: 1.43
Log2fc Pleiotrophin (Ptn) [1]: 2.06
Log2fc Procollagen lysine, 2-oxoglutarate 5-dioxygenase 2 (Plod2) [1]: −1.48
Log2fc Procollagen-lysine, 2-oxoglutarate 5-dioxygenase 3 (Plod3) [1]: −2.01
Log2fc Procollagen-proline, 2-oxoglutarate 4-dioxygenase (proline 4-hydroxylase), alpha 1 polypeptide (P4ha1) [1]: −1.81
Log2fc Prosaposin (Psap) [1]: infinite
Log2fc Prostate androgen-regulated mucin-like protein 1 (Parm1) [1]: 1.57
Log2fc Protein FAM 53B (Fam53b) [1]: infinite
Log2fc Protein disulfide isomerase associated 6 (Pdia6) [1]: 1.85
Log2fc Ring finger protein 145 (Rnf145) [1]: −infinite
Log2fc Septin2 (Sept2) [1]: infinite
Log2fc Serin (or cysteine) peptidase inhibitor, clade F, member 1 (Serpinf1) [1]: 1.99
Log2fc Serine (or cysteine) peptidase inhibitor, clade E, member 1 (Serpine 1) [1]: −1.78
Log2fc Slit homolog 3 (Slit3) [1]: 3.65
Log2fc Spectrin alpha, erythrocytic 1 (Spta1) [1]: 4.01
Log2fc Spectrin beta, non-erythrocytic 1 (Sptbn1) [1]: infinite
Log2fc Spectrin repeat containing nuclear envelope 2 (Syne2) [1]: −infinite
Log2fc Surfeit 1 (SURF1) [1]: −infinite
Log2fc Synaptopodin (Synpo) [1]: −infinite
Log2fc TEA Domain Transcription factor 1 (TEAD1) [1]: −infinite
Log2fc TLC domain-containing protein 2 (Tlcd2) [1]: infinite
Log2fc Tankyrase, TRF1-interacting ankyrin-related ADP-ribose polymerase 2 (Tnks2) [1]: −infinite
Log2fc Tenascin C (Tnc) [1]: 5.1
Log2fc Thrombospondin, type I domain containing 7A (Thsd7a) [1]: 5.06
Log2fc Thymoma viral proto-oncogene 1 (Akt1) [1]: −infinite
Log2fc Tissue inhibitor of metalloproteinase 3 (Timp3) [1]: infinite
Log2fc TraB domain containing 2B (Trabd2b) [1]: 2.75
Log2fc Transformation/transcription domain-associated protein (Trrap) [1]: −infinite
Log2fc Transforming, acidic coiled-coil containing protein 2 (Tacc2) [1]: infinite
Log2fc Tropomyosin 1, alpha (Tpm1) [1]: infinite
Log2fc Tubulin-specific chaperone d (Tbcd) [1]: 2.11
Log2fc Ubiquitin-like modifier activating enzyme 1 (Uba1) [1]: infinite
Log2fc Vinculin (Vcl) [1]: infinite
Log2fc WNK lysine deficient protein kinase 1 (Wnk1) [1]: −infinite
Log2fc Willians-Beuren syndrome chromosome region 17 homolog (Wbscr17) [1]: −2.83
Log2fc c-fos induced growth factor (Figf) [1]: 2.49
Log2fc rho/rac guanine nucleotide exchange factor (GEF) 2 (Arhgef2) [1]: −infinite
Log2fc v-myc myelocytomatosis viral related oncogene, neuroblastoma derived (Mycn) [1]: 2.05
inhibition of pulmonary fibrosis ([2]; 20 μg eupatilin nasally once a day for 1 week): inhibited
inhibition of pulmonary fibrosis ([2]; 40 μg eupatilin nasally once a day for 1 week): more effectively inhibited
toxic symptoms and occurrence of death [3]: no particularly abnormal symptoms were observed
